Source: publication PMC9793460, “Food effect risk assessment in preformulation stage using material sparing μFLUX methodology” (ADMET & DMPK, 2022)
Counter-ions that a name gives are not always drawn. Like-named read-outs stand apart in the source and are kept apart here. Marks after values point to notes of the source that are not given here.

Tests used:
[1] = cited from earlier work; for FE (food effect observed in clinic): assigned from AUC and Cmax ratios of published clinical data; for Observed AUC Ratio (Fed/Fasted) / Observed Cmax Ratio (Fed/Fasted): ratio of geometric means fed/fasted, published clinical data
[2] = μFLUX dissolution/flux test, FaSSIF or FeSSIF donor, acceptor sink buffer receiver; format: in vitro ADME; settings: for Flux Fa (±SD; n=3) / Flux Fe (±SD; n=3): unformulated powder, initial flux excluding lag time, 37 °C; for Flux Ratios (Fed/Fasted): FeSSIF/FaSSIF; for Food effect indicated by flux ratio: prediction from FeSSIF/FaSSIF flux ratio
Description: Dissolution/flux tests were performed using a μFLUX apparatus (Pion Inc., Billerica, MA, USA) with 4 side-by-side donor-receiver chambers separated by a lipophilic barrier. Prior to the assay, the artificial GIT-mimicking membrane was prepared by impregnating a PVDF filter support material (polyvinylidenfluoride, 1.54 cm^2 open area, 0.45 μm pore size, 120 μm thickness, 70 % nominal porosity) with 25 μL of 20 % lecithin in dodecane lipid solution (GIT Lipid, Pion Inc., Billerica, MA, USA). The donor chambers were then filled with 20 ml of biorelevant media (FaSSIF or FeSSIF) while the receiver compartments were filled with 20 ml of acceptor sink buffer (ASB, Pion Inc., Billerica, MA, USA). The ASB is a HEPES (4-(2-hydroxyethyl)-1-piperazineethanesulfonic acid) based pH 7.4 buffer containing chemical scavengers (surfactants micelles) that allow to maintain sink conditions during the experiments. The composition of the membrane and the receiver solution are identical to the Double-Sink PAMPA model, a non-cell-based method predicting of passive transcellular intestinal absorption. The temperature in both chambers was maintained at 37 °C and the media were stirred at 100 rpm.
Model compounds were added at the start of the experiment in the donor chambers as unformulated powder at a solid load equivalent to the lowest marketed dose normalized to 250 mL stomach volume. In some cases, to counter for experimental limitation due to low signal detection or high turbidity, a higher or lower dose was selected.
Standards for each model compound were prepared by sequential addition of a stock solution of pure API pre-dissolved in organic solvents (either methanol or DMSO) to the corresponding medium. The area under the 2nd derivative spectra curves was used to calculate the concentrations. The wavelength range was selected individually for each compound in the way to avoid sensitivity issues. […] The drug concentration in the donor and receiver chambers was calculated from the UV absorbance of the samples using the corresponding standard curve. For samples with low permeability, an additional μFLUX donor-receiver pair containing described reagents except API was included in parallels and used as a corrective “blank” at the corresponding time point to ensure that the UV signal of API could be differentiated from the spectral noise of the biorelevant media. Concentration-time profiles were monitored over at least 180 min, in triplicate for each drug unless otherwise mentioned.
The flux (J) across the membrane representing the amount (m) of material crossing one unit area (A) of the membrane per unit time (t), was calculated from the concentration-time profiles in the receiver compartments:
A is the area of the membrane (1.54 cm^2), V is the volume of the receiver compartment (20 mL) and dc/dt (μg mL^-1 min^-1) is the slope of the concentration time profile of the drug in the receiver compartment.
The flux values were calculated by fitting the concentration-time profile in the receivers to a straight line to determine the slope and then normalizing the slope to the volume and surface area of the membrane following equation (1). Time intervals to calculate the flux were selected based on the apparent linearity of the concentration-time profile in the receivers, capturing the initial flux process and excluding the lag time unless otherwise is stated.

[3] = cited from earlier work; for pKa: experimental, higher pKa where two are given; for Type: ionization type
[4] = Solubility in biorelevant media (FaSSIF / FeSSIF); format: physicochemical; settings: for Solubility ratio (Fed/Fasted): FeSSIF/FaSSIF, calculated from Table 2 solubilities; for Food effect indicated by solubility ratio: prediction from FeSSIF/FaSSIF solubility ratio
Description: Solubility measurements were performed by adding an excess amount of drug into FaSSIF or FeSSIF media in a glass vial. […] After equilibration, samples were centrifuged/filtered using NANOSEP with 0.2 μm Bio-inert centrifugal devices (PAL Corporation). The filtrate was immediately diluted accordingly into acetonitrile/water 50/50 and analyzed by HPLC.
Model drugs categorized as BCS I - IV classes were selected. The drugs included mono- and diprotic acids and bases as well as non-ionizable compounds. […] The physicochemical properties of the model compounds, pKa, log P [18, 19] and solubility in biorelevant media [[20-26]] were collected from the literature and are depicted in Table 2.

[5] = cited from earlier work; for Solubility FeSSIF (pH 5.0) / Solubility FaSSIF (pH 6.5): some values determined in the authors' lab (not marked)
[6] = experimental; cited from earlier work
[7] = μFLUX dissolution/flux test, FaSSIF or FeSSIF donor, acceptor sink buffer receiver; format: in vitro ADME; settings: 0.4 mg/mL

Compound	FE (food effect observed in clinic) [1]	Solubility ratio (Fed/Fasted) [4]	Food effect indicated by solubility ratio [4]	Observed AUC Ratio (Fed/Fasted) [1]	Observed Cmax Ratio (Fed/Fasted) [1]	Flux Fa (±SD; n=3) ([2]; FaSSIF donor)	Flux Fe (±SD; n=3) ([2]; FeSSIF donor)	Flux Ratios (Fed/Fasted) [2]	Food effect indicated by flux ratio [2]	Solubility FeSSIF (pH 5.0) [5]	Solubility FaSSIF (pH 6.5) [5]	further results
CCCCc1oc2ccccc2c1C(=O)c1cc(I)c(OCCN(CC)CC)c(I)c1 [Amiodarone, Amiodarone hydrochloride]	positive food effect	–	–	–	–	–	–	–	–	–	–	Flux Fa (±SD; n=3), early ([2]; FaSSIF donor, early flux, first 2 hours excluding lag time): 0.017± 0.003; Flux Fa (±SD; n=3), late ([2]; FaSSIF donor, late flux, 2.5-9 hours interval): 0.579 ± 0.095; Flux Fe (±SD; n=3), early ([2]; FeSSIF donor, early flux, first 2 hours excluding lag time): 0.073 ± 0.001; Flux Fe (±SD; n=3), late ([2]; FeSSIF donor, late flux, 2.5-9 hours interval): 1.277± 0.109
Cc1ccc(-c2cc(C(F)(F)F)nn2-c2ccc(S(N)(=O)=O)cc2)cc1 [Celecoxib, celecoxib]	positive	2.24	positive food effect	1.19	1.29	0.186 ± 0.021	0.632 ± 0.077	3.4	positive food effect	103.3 μg/mL	–	pKa [3]: 9.38 ± 0.08^a; FE (food effect observed in clinic) ([1]; listed as celecoxib): positive food effect
COC(=O)[C@H](c1ccccc1Cl)N1CCc2sccc2C1 [Clopidogrel bisulfate, clopidogrel bisulfate]	none	3.85	positive food effect	1.02	0.79	1.751 ± 0.540	2.168 ± 0.323	1.24	no food effect	500 μg/mL	130 μg/mL	FE (food effect observed in clinic) ([1]; listed as clopidogrel bisulfate): no food effect
C#C[C@]1(O)CC[C@H]2[C@@H]3CCC4=Cc5oncc5C[C@]4(C)[C@H]3CC[C@@]21C [Danazol, danazol]	–	–	–	–	–	–	–	–	–	–	–	Type [3]: N
CNCCC(Oc1ccc(C(F)(F)F)cc1)c1ccccc1 (centres unmarked) [Fluoxetine HCl, fluoxetine hydrochloride]	none	–	–	–	–	–	–	–	–	–	–	FE (food effect observed in clinic) ([1]; listed as FXT): not influenced by presence or absence of food
NS(=O)(=O)c1cc(C(=O)O)c(NCc2ccco2)cc1Cl [Furosemide, furosemide]	negative	–	–	–	–	0.018 ± 0.003	0.208 ± 0.036	–	–	–	–	fraction of drug deprotonated ([3]; pH 5.0, species distribution curve): ~ 97%; FE (food effect observed in clinic) ([1]; listed as furosemide): negative food effect
COC1=CC(=O)C[C@@H](C)[C@]12Oc1c(Cl)c(OC)cc(OC)c1C2=O [Griseofulvin]	–	–	–	–	–	0.205 ± 0.011	0.218 ± 0.009	–	–	29.2 μg/mL	23.4 μg/mL	Type [3]: N; log P [6]: 2.2
NNC(=O)c1ccncc1 [Isoniazid, isoniazid]	negative food effect	–	–	0.88	0.49	0.020 ± 0	0.020 ± 0	–	–	> 60,000 μg/mL	> 60,000 μg/mL	Solubility in FaSSIF ([5]; FaSSIF): > 60 mg/mL; Solubility in FeSSIF ([5]; FeSSIF): > 60 mg/mL
CCc1nn(CCCN2CCN(c3cccc(Cl)c3)CC2)c(=O)n1CCOc1ccccc1 [Nefazodone HCl, nefazodone hydrochloride]	negative food effect	1.52	positive food effect	0.78	0.93	0.521 ± 0.179	1.077 ± 0.084	2.07	negative food effect	383 μg/mL	252 μg/mL	Flux Fa (±SD; n=3), suspension ([7]; FaSSIF donor, sample introduced as slurry of DS in the medium): 2.610 ± 0.618; Flux Fe (±SD; n=3), suspension ([7]; FeSSIF donor, sample introduced as slurry of DS in the medium): 1.923 ± 0.547; Flux Ratios (Fed/Fasted), suspension ([7]; FeSSIF/FaSSIF, sample introduced as slurry): 0.74
Cc1cn([C@H]2C[C@H](N=[N+]=[N-])[C@@H](CO)O2)c(=O)[nH]c1=O [Zidovudine, zidovudine]	negative food effect	–	–	–	–	0.037 ± 0.007	0.034 ± 0.002	–	–	–	–	pKa [3]: 9.40 ± 0.01^a; log P [6]: 0.13
